Results taken from EP2402012B1, “Liquid formulations of rupatadine fumarate” (J. Uriach y Compania S.A., priority 2010, dated 2012).
Where a name gives a salt, the structure may show the parent alone.

What was measured:
[1] = Solubility of rupatadine fumarate in water and in buffer solutions at different pH; type: physicochemical; settings: water; 25 g/L added, stirring 16 - 24 h, filtered; room temperature
Procedure: The solubility of rupatadine fumarate was determined by adding 25 g/L of rupatadine fumarate to water and stirring during 16 - 24 h. The resulting solution was filtered and the amount of rupatadine determined using the Method 2. Using the same procedure, but using buffer solutions of known pH instead of water, the solubility of rupatadine fumarate at different pH was determined (the pH of the solution was measured prior to the addition of rupatadine fumarate).

[2] = Rate of formation of Compound II in aqueous solutions of rupatadine fumarate on storage (HPLC, Method 2); type: physicochemical; settings: aqueous solution 1 g(rupatadine fumarate)/L
Procedure: The HPLC method used to determine the % Compound II present in a formulation is based on the European Pharmacopoeia 2.2.29 using the following conditions: • room temperature and atmospheric pressure • column: C1810 µm (3.9 mm x 30 cm) • eluent: Methanol - Phosphate buffer solution pH 4.2 (75:25) • eluent flow: 1.3 mL/min • detection: UV-Visible spectrophotometer at 265 nm • retention time of Rupatadine: aprox. 8.9 min • relative retention time of Compound II: aprox. 0.43 Reference standard solutions of rupatadine and Compound II (which can be prepared as described in Reference Example 3) are used in the identification of the components. The test sample is compared to the equivalent placebo (same formulation without rupatadine fumarate) to check overlapping peaks with other excipients in the formulation. The % Compound II is calculated as 100*(area of Compound II peak)/(area of rupatadine peak). Different aqueous solutions comprising rupatadine fumarate at a concentration of 1 g(rupatadine fumarate)/L at different pH (3.41, 4.38 and 5.00), obtained adding the required amount of solutions of HCl(aq) or NaOH(aq) to solutions containing only water and rupatadine fumarate, were stored at different temperature conditions (room temperature and 40°C/75%HR) during two months and analyzed at the beginning, at one month and at the end of the period using Method 2, see table below.

solubility [1]: 2900 µg/mL | % Compound II 1 month ([2]; pH 3.41, 25 ± 2°C): 0.174% | % Compound II 1 month ([2]; pH 3.41, 40 ± 2°C): 0.737% | % Compound II 2 months ([2]; pH 3.41, 25 ± 2°C): 0.276% | % Compound II 2 months ([2]; pH 3.41, 40 ± 2°C): 1.396% | % Compound II initial ([2]; pH 3.41): 0.035% | % Compound II 1 month ([2]; pH 4.38, 25 ± 2°C): 0.090% | % Compound II 1 month ([2]; pH 4.38, 40 ± 2°C): 0.357% | % Compound II 2 months ([2]; pH 4.38, 25 ± 2°C): 0.142% | % Compound II 2 months ([2]; pH 4.38, 40 ± 2°C): 0.646% | % Compound II initial ([2]; pH 4.38): 0.036% | % Compound II 1 month ([2]; pH 5.00, 25 ± 2°C): 0.039% | % Compound II 1 month ([2]; pH 5.00, 40 ± 2°C): 0.112% | % Compound II 2 months ([2]; pH 5.00, 25 ± 2°C): 0.051% | % Compound II 2 months ([2]; pH 5.00, 40 ± 2°C): 0.182% | % Compound II initial ([2]; pH 5.00): 0.040%
SMILES: Cc1cncc(CN2CCC(=C3c4ccc(Cl)cc4CCc4cccnc43)CC2)c1 [rupatadine fumarate]
